87 compounds from PubChem BioAssay AID743417 (Broad Institute, 2014) can be followed below.

Molecules are shown by their SMILES. Inconclusive results are not listed. Activity calls are given as the source filed them.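 How the source made its calls: active means compounds lowering the luciferase signal with a fitted half-maximal dose at most twice their top valid dose (cut at about 30 µM in these data); inconclusive means flat fits with moderate signal loss, or poor fits; inactive means the rest.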 *1 amine or outer side, *2 acyl side, *3 side chain or, on linkers, in order; H or OH if unused. Where a SMILES comes first, the peptide text is derived from it. Bridges are numbered along the chain shown (N, C = ends). [ ]: non-standard residue; d: D form. ξ: configuration not given here. X1 = CC[C@H](CCC[C@@H](O)[C@@H](C)C(=O)O[C@H](C)[C@@H](C)C/C=C(C)/C(=C\C(=O)[*:1])OC)O[*:2]; NMeξIle = CC[C@H](C)C(NC)C(=O)O; NMeV = CN[C@H](C(=O)O)C(C)C; NMeS = CN[C@@H](CO)C(=O)O

For the experiment, the system named is Clone20 osteoblast Shn3 3'UTR firefly luciferase, 24 h. Put plainly: Schnurri-3 3'UTR-luciferase signal suppressors – cell-based, Clone20 osteoblasts, luminescence, dry powder, set 2, dose response (AID 743417).
A word on the AC50: it is the concentration giving half of the maximal activity seen. For the compound `C=CCNc1nc(N2CCOCC2)c(C#N)c2c1CN(C)CC2`, the AC50 is > 70 µM (inactive). The result for `O=C(OCc1ccccc1)c1ccc(NCc2cc(O)ccc2O)cc1` reads 0.711 µM; that for `CN(CC(=O)Nc1cccc(S(=O)(=O)N2CCOCC2)c1)CC(=O)Nc1ccc(Cl)c(C(F)(F)F)c1`, 2.4 µM; that for `CCOC(=O)c1cnc(-n2nc(C)cc2C)nc1NC1CCCCC1`, 3.01 µM.

Take `O=C(CN1CCCC1c1cccs1)Nc1cc(S(=O)(=O)N2CCCCC2)ccc1Cl` (configuration not stated): the AC50 is 14.4 µM. The result for `C#CCN(C[C@@H]1[C@@H](OC(=O)NC2CCCC2)[C@@H](OC(=O)NC2CCCC2)Cn2c(=O)ccc(=O)n21)S(=O)(=O)c1ccc(C)cc1` reads 12.9 µM; that for `CN1CCN(Cc2nc3ccccc3c(=O)n2Cc2nc(-c3ccc4ccccc4c3)cs2)CC1`, 11 µM; that for `CC(C)(C)c1ccc(C(=O)NCCCN2CCN(CCCNC(=O)c3ccc(C(C)(C)C)cc3)CC2)cc1`, 4.84 µM.

Turning to `O=C(Nc1ccc(Cl)c(Cl)c1)c1cccc(S(=O)(=O)NCc2cccnc2)c1`, the AC50 is 5.39 µM. Regarding `CCN(CC)CCN1C(=O)/C(=C\c2ccc(Cl)c([N+](=O)[O-])c2)SC1=Nc1ccc(OC)cc1`, the AC50 was 2.11 µM.

In the case of `O=C(Nc1nc(-c2ccccn2)cs1)c1ccccc1-n1cnnn1`, the AC50 is 1.71 µM. The result for `O=C1/C(=C/c2ccccc2)C[C@@]2(O)[C@H]3Cc4ccc(O)c5c4[C@@]2(CCN3CC2CC2)C1O5` (some centres not stated) reads 4.64 µM.

On to `COc1cccc(N2CCN(c3ncnc4c3[nH]c3ccc(F)cc34)CC2C)c1` (configuration not stated), for which the AC50 was 1.31 µM. The result for `COc1ccc(Cl)cc1N/C(N)=N/c1nc(CSc2ccc(C)cc2)cc(=O)[nH]1` reads 1.82 µM. Take `COC(=O)/C(=C1/Oc2cc(C)oc(=O)c2S1)C(F)(F)F`: the AC50 was 4.64 µM. The result for `Cc1ccc(NC(=O)c2oc3ccccc3c2COC(C)C)cc1S(=O)(=O)N1CCOCC1` reads 14.4 µM. The result for `COc1ccc(CN2CCC(N(CCc3ccccc3)Cc3ccccc3)CC2)c(OC)c1` reads 8.1 µM. The same measure for `O=C(C1CCC(CNS(=O)(=O)c2cccs2)CC1)N1CCN(c2ccc(Cl)cc2)CC1` (configuration not stated): 1.61 µM; for `COCCN1Cc2cccc(C(=O)Nc3ccc4c(c3)OCCO4)c2C1=O`: 27.1 µM; for `COc1ccc(CNCCc2ccc(Cl)cc2)cc1OCc1ccccc1`: 5.59 µM. Take `COCC1CCN(C(=O)c2cc(COc3ccc4ncccc4c3)on2)CC1`: the AC50 was 2.7 µM. Turning to `CCCCC(=O)NC(c1ccccc1OC)c1ccc2cccnc2c1O` (configuration not stated), the AC50 is 1.19 µM.

In the case of `C=C1C(=O)O[C@@H]2C[C@@H](C)[C@@H]3C=CC(=O)[C@@]3(C)[C@@H](OC(=O)CC(=O)O[C@H]3[C@@H]4C(=C)C(=O)O[C@@H]4C[C@@H](C)[C@@H]4C=CC(=O)[C@]43C)[C@H]12`, the AC50 was 0.292 µM. As to `Cn1c(=O)n(C)c2cc([N+](=O)[O-])c(N3CCN(S(=O)(=O)c4ccc(C(C)(C)C)cc4)CC3)cc21`, the AC50 was 3.53 µM.

In the case of `CCCC(=O)OCCNc1cc(Sc2nccn2C)c2nonc2c1[N+](=O)[O-]`, the AC50 was 7.22 µM.

For `COc1c(CC=C(C)C)cc(C2CC(=O)c3c(O)cc(O)cc3O2)cc1CC=C(C)C` (configuration not stated), the AC50 is 5.42 µM. The same measure for `O=C(NCc1cccnc1)c1ccc(-c2ccc(F)c(F)c2)c2ccoc12`: 3.48 µM. On to `CNS(=O)(=O)c1cccc(C(=O)OCc2cc(C(C)=O)ccc2OC)c1`, for which the AC50 is 11.2 µM. As to `CCOC(=O)N1CCN(C(=O)c2ccc3c(c2)N(Cc2ccc(C)cc2)CCS3)CC1`, the AC50 is 6 µM. Consider `CN(c1ccccc1)S(=O)(=O)c1cccc(NC(=O)c2ccc3ncsc3c2)c1`, for which the AC50 was 17.2 µM. The same measure for `Cn1cc([N+](=O)[O-])c(C(=O)Nc2sc3c(c2C#N)CCC3)n1`: 0.88 µM. Turning to `Oc1ccc(-c2csc(Nc3cccc4ccccc34)n2)cc1O`, the AC50 was 1.58 µM. The same measure for `COC(=O)c1cc2c(n1S(=O)(=O)c1ccc(C)cc1)C(=O)C(=O)c1[nH]cc(C(=O)OCc3ccccc3)c1-2`: 1.2 µM; for `Cc1ccc(Nc2c(-c3ccccn3)nc3cccc(C)n23)cc1`: 1.9 µM; for `CC(C)Oc1ccc(S(=O)(=O)N2CCCCC2)cc1NC(=O)CN1CCCC1c1cccs1` (configuration not stated): 7.88 µM. The same measure for `CC1CN(S(=O)(=O)c2ccc(C(=O)Nc3nc(-c4cc5ccccc5o4)cs3)cc2)CC(C)O1` (configuration not stated): under 0.26 µM; for `COc1ccc(C)c2sc(N(CCCN(C)C)C(=O)c3ccc(S(=O)(=O)N4CCc5ccccc5C4)cc3)nc12`: 4.4 µM. The same measure for `COc1ccc(CNC(=O)C(c2ccc(C)cc2)N(Cc2cccs2)C(=O)c2ccc3c(c2)OCCO3)cc1` (configuration not stated): 8.1 µM; for `C=CCn1c(C)cc(C(=O)CN2C(=O)c3ccccc3S2(=O)=O)c1C`: 0.974 µM. For `CC(C)C[C@H]1CNC(=S)N1CC1CCN(CC2CCC(C(C)(C)C)CC2)CC1` (some centres not stated), the AC50 is 4.05 µM. The same measure for `Cc1cc2c(cc(C(=O)OC(C(=O)NC3CCCCC3)C(C)C)n2C)o1` (configuration not stated): 5.9 µM.

`O=S(=O)(c1ccccc1C(F)(F)F)N1CCN(c2ncnc3sccc23)CC1`: the AC50 is 3.44 µM.

Consider `CC(C)(C)C(=O)Nc1ccc(NC(=O)c2ccco2)nc1`, for which the AC50 was 1.17 µM. The same measure for `O=C(c1ccccc1)C(CN1CCCC1)c1ccccc1` (configuration not stated): 10.7 µM.

For `CCCNC(=O)c1nnsc1S(=O)c1ccc(Cl)cc1` (configuration not stated), the AC50 was 1.26 µM. For the compound `C=CCOC(=O)c1[nH]c2c(c1C)C(=O)CC(c1cc(OC)c(OC)c(OC)c1)C2` (configuration not stated), the AC50 is 1.83 µM.

With `CC(C)(C)C(=O)/C(=C/c1ccncc1)n1cncn1`, the AC50 is 3.27 µM. The result for `CC(=O)OCCCNc1cc(Sc2ccc(C)cc2)c2nonc2c1[N+](=O)[O-]` reads 1.1 µM; that for `CCOc1ccc(C(=O)C(CCC(CN(C)C)C(=O)c2ccc(OCC)cc2)CN(C)C)cc1` (configuration not stated), 1.61 µM; that for `Cc1ccc(Nc2nc(NCC3CC3)nc3ccsc23)c(C)c1`, 5.82 µM. For `O=[N+]([O-])c1c(Nc2cccc(O)c2)cc(Cl)c2nonc12`, the AC50 is 0.683 µM. The same measure for `Cc1c(C(C)C)c(=O)n(-c2ccc(S(=O)(=O)NCc3ccccc3)cc2)n1C`: 1.18 µM.

Consider `Cc1cccc(Oc2cc(NC(=O)c3ccccc3)cc([N+](=O)[O-])c2)c1`, for which the AC50 was 3.09 µM. The result for `CC[C@@H]1CCC[C@@H](O)[C@@H](C)C(=O)O[C@H](C)[C@@H](C)C/C=C(C)/C(OC)=C\C(=O)N(C)C([C@@H](C)CC)C(=O)N(C)[C@@H](C(C)C)C(=O)N(C)[C@@H](COC)C(=O)N2CCC[C@H]2C(=O)N(C)[C@@H](C(C)C)C(=O)N2CCC[C@H]2C(=O)O1` (some centres not stated) ([NMeξIle][NMeV][NMeS](Me)P[NMeV]P; linker N-C via X1) reads under 0.26 µM; that for `COc1ccccc1-c1cc(C(F)(F)F)nc(S(=O)(=O)CCCC(=O)Nc2cccnc2Cl)n1`, 10.6 µM.

On to `O=C(OCCOc1ccc(Cl)cc1)c1cc(S(=O)(=O)N2CCCCC2)ccc1N1CCOCC1`, for which the AC50 was 1.97 µM. The same measure for `Cc1cc(C)c(S(=O)(=O)N2Cc3ccccc3-n3nncc3C2)c(C)c1`: 4.36 µM; for `COc1ccc(CCNc2cc(N3CCN(C(=O)c4ccccc4OC)CC3)ccc2[N+](=O)[O-])cc1OC`: 2.63 µM; for `Cc1ccc(-c2csc(N3CCC(NS(=O)(=O)c4ccc5c(c4)OCCO5)CC3)n2)cc1`: 2.15 µM. Turning to `CC(C)C[C@@H](CO)N(Cc1ccccc1)S(=O)(=O)N(Cc1ccccc1)[C@@H](CO)CC(C)C`, the AC50 was 11.4 µM. As for `CC(=O)N1c2ccc(S(=O)(=O)N3CCC(C(=O)Nc4cccc(F)c4)CC3)cc2CC1C` (configuration not stated), the AC50 is 4.54 µM. As to `Cc1ccc(-n2ncc3c(N4CCN(c5ccc(F)cc5)CC4)ncnc32)c(C)c1`, the concentration at half-maximal activity (AC50) is 3.24 µM. The same measure for `CCCCN1CC(COCc2ccccc2)Oc2cccc(Oc3ccc(C(C)C)cc3)c2S1(=O)=O` (configuration not stated): 5.03 µM; for `C=CCNc1nc(N2CCCCC2)c(C#N)c2c1CN(Cc1ccccc1)CC2`: 16.8 µM. The result for `COc1ccc(C(NC(C)=O)c2cc(Cl)c3cccnc3c2O)cc1OC` (configuration not stated) reads 3.45 µM; that for `Cc1ccccc1C(=O)N1CCN(c2ccc(NC(=O)CSc3ccc(Cl)cc3)cc2)CC1`, 4.23 µM. The same measure for `COc1ccccc1-c1cc(C(F)(F)F)nc(S(=O)(=O)CCCC(=O)NCc2ccc(F)cc2)n1`: 4.43 µM; for `CCOC(=O)Cn1c(S(=O)(=O)Cc2ccccc2Cl)nc(-c2ccccc2)c1-c1ccccc1`: 9.29 µM; for `Cn1nc(C(C)(C)C)cc1C(=O)N1CCCCC1c1cc(C(=O)Nc2cccc3c2CCCC3)no1` (configuration not stated): 10.2 µM.

In the case of `CC1CCN(Cc2ccc(-c3nnn(CC(=O)Nc4ccccc4Cl)n3)cc2)CC1`, the AC50 was 1.77 µM. `CCn1c(C)cc(C(=O)COC(=O)c2ccccc2[N+](=O)[O-])c1C`: the AC50 was under 0.26 µM.

As for `O=C(Nc1ccc(N2CCOCC2)c(Cl)c1)c1ccc([N+](=O)[O-])o1`, the AC50 was 6.23 µM.

On to `Oc1cc(-c2cccnc2)cc2cccnc12`, for which the AC50 was 9.27 µM. The same measure for `CCOC(=O)c1cn(CC(=O)Nc2cccc(Cl)c2C)nn1`: 4.65 µM; for `Cc1cc(C)n(-c2ccc3cccc(NS(C)(=O)=O)c3n2)n1`: 1.32 µM. The result for `Cc1nnc(NC(=O)c2nc(S(=O)(=O)Cc3ccccc3)ncc2Cl)s1` reads 1.34 µM. The result for `Cc1cc(Nc2cccc(Cl)c2)nc(NCc2ccccc2)n1` reads 1.64 µM; that for `CC[C@@H](C)[C@H](CNC)NC[C@@H](Cc1cccc2ccccc12)NCCc1cccc(C(F)(F)F)c1`, 8.08 µM. Consider `CCCC(=O)NC(c1ccccc1)c1ccc2cccnc2c1O` (configuration not stated), for which the AC50 is 1.99 µM. The same measure for `COc1ccc(Cn2c(SCc3cc(C)ccc3C)nc3cc(OC)c(OC)cc3c2=N)cc1`: 7.91 µM. The same measure for `Cc1cccc(N2CCN(C(=O)CSCc3c(C)noc3C)CC2)c1C`: 2.41 µM; for `C=C1CC2(CC(c3ccccc3)OC(c3ccccc3)C2)OC1=O` (configuration not stated): 2.49 µM; for `CCN(CC)S(=O)(=O)c1ccc(N2CCOCC2)c(NC(=O)c2nn(C(C)C)c(=O)c3ccccc23)c1`: 15.6 µM.

Regarding `Cc1sc2ncnc(N3CCN(S(=O)(=O)c4ccc(Br)cc4)CC3)c2c1C`, the AC50 is 3.59 µM.

With `O=C(O)c1cccc(COc2ccccc2Cl)c1`, the AC50 is 1.48 µM. The same measure for `Oc1ccc(CN2CCc3ccccc3C2)c2cccnc12`: 0.673 µM. The same measure for `CC(CC(=O)N1CCN(c2cccc(Cl)c2)CC1)S(=O)(=O)c1ccc2c(c1)NC(=O)CO2` (configuration not stated): 3.99 µM.
